US20160296529A1, “AMINOTRIAZOLOPYRIDINE FOR USE IN THE TREATMENT OF INFLAMMATION, AND PHARMACEUTICAL COMPOSITIONS THEREOF” (priority 2012, published 2016)
Several values for one entry are separate records, joined by “and”; a condition that tells them apart may be missing. Equal values may be shown once. Read-outs that look alike come from different tables or passages of the source.

Assays:
[1] = molecular target: T1, Recombinant human JAK2 catalytic domain (Homo sapiens, UniProt O60674); assay: JAK2 assay polyGT substrate; format: biochemical
T1 construct: amino acids 808-1132; catalog number PV4210; GST; purchased Invitrogen PV4210
Method: Recombinant human JAK2 catalytic domain (amino acids 808-1132; catalog number PV4210) was purchased from Invitrogen. 0.05 mU of JAK2 was incubated with 2.5 μg polyGT substrate (Sigma catalog number P0275) in kinase reaction buffer (10 mM MOPS pH 7.5, 0.5 mM EDTA, 0.01% Brij-35, 1 mM DTT, 15 mM MgAc, 1 μM non-radioactive ATP, 0.25 μCi ^33P-gamma-ATP (Perkin Elmer, catalog number NEG602K001MC) final concentrations) with or without 5 μL containing test compound or vehicle (DMSO, 1% final concentration), in a total volume of 25 μL, in a polypropylene 96-well plate (Greiner, V-bottom). After 90 min at 30° C., reactions were stopped by adding of 25 μL/well of 150 mM phosphoric acid. […] 40 μL/well of Microscint-20 was added, the top of the plates was sealed and readout was performed using the Topcount (Perkin Elmer). Kinase activity was calculated by subtracting counts per min (cpm) obtained in the presence of a positive control inhibitor (10 μM staurosporine) from cpm obtained in the presence of vehicle. The ability of a test compound to inhibit this activity was determined as:
Percentage inhibition=((cpm determined for sample with test compound present−cpm determined for sample with positive control inhibitor) divided by (cpm determined in the presence of vehicle−cpm determined for sample with positive control inhibitor))*100. […]

[2] = molecular target: T2, Recombinant human TYK2 catalytic domain (Homo sapiens, UniProt P29597); assay: TYK2 inhibition assay; format: biochemical
T2 construct: amino acids 871-1187; catalog number 08-147; GST; purchased Carna Biosciences 08-147
T2 sequence (P29597 871-1187): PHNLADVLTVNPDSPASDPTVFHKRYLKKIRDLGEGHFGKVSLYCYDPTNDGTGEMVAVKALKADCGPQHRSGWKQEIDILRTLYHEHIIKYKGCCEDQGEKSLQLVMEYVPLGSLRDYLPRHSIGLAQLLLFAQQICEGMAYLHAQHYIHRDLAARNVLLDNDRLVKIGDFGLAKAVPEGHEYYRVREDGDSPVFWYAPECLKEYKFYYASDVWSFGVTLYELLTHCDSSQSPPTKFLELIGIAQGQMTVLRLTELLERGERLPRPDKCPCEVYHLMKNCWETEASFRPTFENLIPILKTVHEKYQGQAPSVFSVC
Method: Recombinant human TYK2 catalytic domain (amino acids 871-1187; catalog number 08-147) was purchased from Carna biosciences. 4 ng of TYK2 was incubated with 12.5 μg polyGT substrate (Sigma catalog number P0275) in kinase reaction buffer (25 mM Hepes pH 7.2, 50 mM NaCl, 0.5 mM EDTA, 1 mM DTT, 5 mM MnCl2, 10 mM MgCl2, 0.1% Brij-35, 0.1 μM non-radioactive ATP, 0.125 μCi ^33P-gamma-ATP (Perkin Elmer, catalog number NEG602K001MC) final concentrations) with or without 5 μL containing test compound or vehicle (DMSO, 1% final concentration), in a total volume of 25 μL, in a polypropylene 96-well plate (Greiner, V-bottom). After 90 min at 30° C., reactions were stopped by adding 25 μL/well of 150 mM phosphoric acid. […] 40 μL/well of Microscint-20 was added, the top of the plates was sealed and readout was performed using the Topcount (Perkin Elmer). Kinase activity was calculated by subtracting counts per min (cpm) obtained in the presence of a positive control inhibitor (10 μM staurosporine) from cpm obtained in the presence of vehicle. The ability of a test compound to inhibit this activity was determined as:
Percentage inhibition−((cpm determined for sample with test compound present−cpm determined for sample with positive control inhibitor) divided by (cpm determined in the presence of vehicle−cpm determined for sample with positive control inhibitor))*100. […]

[3] = average, read-out: IC50 (average)
[4] = individual determinations, read-out: IC50

T1 sequence (O60674 808-1132): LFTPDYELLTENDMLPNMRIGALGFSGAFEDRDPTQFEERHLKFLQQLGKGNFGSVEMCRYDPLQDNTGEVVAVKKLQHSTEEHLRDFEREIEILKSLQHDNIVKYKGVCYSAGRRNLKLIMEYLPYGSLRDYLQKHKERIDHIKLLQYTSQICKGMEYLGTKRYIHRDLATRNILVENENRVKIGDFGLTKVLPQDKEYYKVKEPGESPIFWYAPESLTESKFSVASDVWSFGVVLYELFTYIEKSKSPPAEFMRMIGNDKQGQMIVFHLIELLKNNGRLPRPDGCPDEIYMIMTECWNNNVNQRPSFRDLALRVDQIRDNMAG

IC50 [1, 3]: 624 nM
IC50 [1, 4]: 567 nM and 365 nM and 256 nM and 915 nM and 1020 nM
IC50 [2, 3]: > 3000 nM
SMILES: Nc1nc2cccc(-c3ccc(CN4CCS(=O)(=O)CC4)cc3)n2n1 [Formula I, 5-[4-(1,1-Dioxothiomorpholin-4-ylmethyl)-phenyl]-[1,2,4]triazolo[1,5-a]pyridin-2-ylamine]
IC50 [2, 4]: > 3.33 µM (3×) and 1.97 µM and 2.12 µM and 3.85 µM and 3.82 µM and 2.21 µM
